Experimental data published in patent publication US20080182859A1 (Curis, Inc., priority 2006, published 2008).
Structures can show the parent of a compound that is named as a salt.

Key:
Type in all cases: cell-based
sonic hedgehog pathway [1] = assay: Hedgehog pathway Gli-luciferase reporter assay, S12 cells; conditions: S12 mouse embryonic mesenchymal cells
Excerpt: Mouse (TM3: mouse Leydig cells; S12: mouse embryonic mesenchymal cells) and human (Daoy: human medulloblastoma cell; HepM: human embryonic palatal mesenchymal cell) cell lines are used to screen small molecules for their ability to modulate the activity of the sonic hedgehog pathway (Table 1, Table 2, and Table 3). Stable hedgehog pathway reporter cell lines are established by specific antibiotic selection following transfection of a reporter plasmid containing a luciferase gene located directly downstream from the gli promoter. Consequently, any observable changes in cellular luciferase activity may be attributed to changes in sonic hedgehog pathway activity in mouse and human cells, respectively, since gli is the major by-product of this pathway. To calculate activity, we generate an eleven point dose curve for each compound using 1:3 dilutions in 96 well assay plates. Each plate tested also contains low and high control to establish maximal pathway activation so to establish/compare a percentage activation of each tested compound (AMAX) on respective plates. Also we calculate EC50 values, or a concentration where the pathway will be exactly 50% activated, for each tested compound to determine potency. In these cell lines, compounds that register >20% AMAX values are considered active.
Stable hedgehog pathway reporter cell lines are established following specific antibiotic selection following transfection of a reporter plasmid In short, typically cells are plated in MicroTiter-plates at 10,000-20,000 cells per well, in growth media (containing 10%-20% FBS). After 48-72 hrs (HGL and DGL respectively) the media in the assay plates is switched to low-serum containing media (0.5% FBS). At that time compounds are added (at 1-5 μM) to the assay plates, in the presence or absence of hedgehog protein (octyl-modified version; 1-5 ng/ml). After another 24 hrs of incubation, the media from the assay plates is discarded and replaced with luciferase assay-mix. Subsequently, plates are incubated at RT for ˜15-30 mins and then read in a luminometer. [note: addition of the Hedgehog protein, although not critical, will sensitize the assay allowing the identification of weak actives].

sonic hedgehog pathway [2] = assay: Human hedgehog reporter assay HEPM-GliLuc (HGL); conditions: HepM human embryonic palatal mesenchymal cells, Gli-luciferase reporter
Summary of the method: (§1)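 Agonist mode: cells carrying a luciferase gene downstream of the gli promoter received compound at 1–5 μM in 0.5% FBS for 24 h, optionally sensitised with 1–5 ng/ml octyl-modified hedgehog protein; luminescence gave % activation and EC50.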

sonic hedgehog pathway [3] = assay: Human hedgehog reporter assay Daoy-GliLuc (DGL); conditions: Daoy human medulloblastoma cells, Gli-luciferase reporter
Summary of the method: as §1

[4] = read-out: Human Daoy (Gli-Luc) Avg. EC50

Row | EC50 (sonic hedgehog pathway [3]; read-out: Daoy Avg. EC50) [µM] | EC50 (sonic hedgehog pathway [3]; [4]) [µM] | SMILES | EC50 (sonic hedgehog pathway [1]; read-out: S12 Avg. EC50) [µM] | EC50 (sonic hedgehog pathway [2]) [µM] | EC50 (sonic hedgehog pathway [1]; read-out: Mouse S12 Avg. EC50) [µM]
1 | < 0.05 |  | CN[C@H]1CC[C@@H](N(Cc2cc(-c3ccncc3)ccc2O)C(=O)c2sc3c(F)ccc(F)c3c2Cl)CC1 [Compound 368, 3-Chloro-4,7-difluoro-benzo[b]thiophene-2-carboxylic acid (2-hydroxy-5-pyridin-4-yl-benzyl)-(4-methylamino-cyclohexyl)-amide dihydrochloride] | < 0.05 | < 0.05 | 
2 |  | < 0.05 | CNC1CCC(N(Cc2cc(-c3ccnc(F)c3)ccc2OC)C(=O)c2sc3c(F)ccc(F)c3c2Cl)CC1 (stereo not shown) [Compound 384, 3-Chloro-4,7-difluoro-benzo[b]thiophene-2-carboxylic acid [5-(2-fluoro-pyridin-4-yl)-2-methoxy-benzyl]-(4-methylamino-cyclohexyl)-amide] |  |  | < 0.05
3 |  | < 0.05 | CNC1CCC(N(Cc2cc(-c3ccnc(F)c3)ccc2OC)C(=O)c2sc3cccc(F)c3c2Cl)CC1 (stereo not shown) [Compound 385, 3-Chloro-4-fluoro-benzo[b]thiophene-2-carboxylic acid [5-(2-fluoro-pyridin-4-yl)-2-methoxy-benzyl]-(4-methylamino-cyclohexyl)-amide] |  |  | < 0.05
4 |  | < 0.05 | CNC1CCC(N(Cc2cc(-c3ccncc3F)ccc2OC)C(=O)c2sc3c(F)ccc(F)c3c2Cl)CC1 (stereo not shown) [Compound 386, 3-Chloro-4,7-difluoro-benzo[b]thiophene-2-carboxylic acid [5-(3-fluoro-pyridin-4-yl)-2-methoxy-benzyl]-(4-methylamino-cyclohexyl)-amide] |  |  | < 0.05
5 |  | < 0.05 | CNC1CCC(N(Cc2cc(-c3ccncc3F)ccc2OC)C(=O)c2sc3cccc(F)c3c2Cl)CC1 (stereo not shown) [Compound 387, 3-Chloro-4-fluoro-benzo[b]thiophene-2-carboxylic acid [5-(3-fluoro-pyridin-4-yl)-2-methoxy-benzyl]-(4-methylamino-cyclohexyl)-amide] |  |  | < 0.05
6 |  | < 0.05 | CN[C@H]1CC[C@@H](N(Cc2cc(-c3ccc(S(N)(=O)=O)cc3)ccc2OC)C(=O)c2sc3c(F)ccc(F)c3c2Cl)CC1 [Compound 388, 3-Chloro-4,7-difluoro-benzo[b]thiophene-2-carboxylic acid (4-methoxy-4′-sulfamoyl-biphenyl-3-ylmethyl)-(4-methylamino-cyclohexyl)-amide hydrochloride] |  |  | < 0.05
7 |  | < 0.05 | CCS(=O)(=O)c1ccc(-c2ccc(OC)c(CN(C(=O)c3sc4c(F)ccc(F)c4c3Cl)[C@H]3CC[C@@H](NC)CC3)c2)cc1 [Compound 389, 3-Chloro-4,7-difluoro-benzo[b]thiophene-2-carboxylic acid (4′-ethanesulfonyl-4-methoxy-biphenyl-3-ylmethyl)-(4-methylamino-cyclohexyl)-amide hydrochloride] |  |  | < 0.05
8 |  | < 0.05 | COc1ccc(-c2ccc(S(C)(=O)=O)cc2)cc1CN(C(=O)c1sc2c(F)ccc(F)c2c1Cl)[C@H]1CC[C@@H](N)CC1 [Compound 390, 3-Chloro-4,7-difluoro-benzo[b]thiophene-2-carboxylic acid (4-amino-cyclohexyl)-(4′-methanesulfonyl-4-methoxy-biphenyl-3-ylmethyl)-amide hydrochloride] |  |  | < 0.05
9 |  | < 0.05 | CN[C@H]1CC[C@@H](N(Cc2cc(-c3ccc(S(=O)(=O)N(C)C)cc3)ccc2OC)C(=O)c2sc3c(F)ccc(F)c3c2Cl)CC1 [Compound 391, 3-Chloro-4,7-difluoro-benzo[b]thiophene-2-carboxylic acid (4′-dimethylsulfamoyl-4-methoxy-biphenyl-3-ylmethyl)-(4-methylamino-cyclohexyl)-amide trifluoroacetate] |  |  | < 0.05
10 |  | < 0.05 | CN[C@H]1CC[C@@H](N(Cc2cc(-c3ccncc3)ccc2C)C(=O)c2sc3c(F)ccc(F)c3c2Cl)CC1 [Compound 392, 3-Chloro-4,7-difluoro-benzo[b]thiophene-2-carboxylic acid (4-methylamino-cyclohexyl)-(2-methyl-5-pyridin-4-yl-benzyl)-amide bis(trifluoroacetate)] |  |  | < 0.05
11 |  | 0.05 to 0.25 | C=Cc1ccc(-c2ccc(OC)c(CN(C(=O)c3sc4c(F)ccc(F)c4c3Cl)[C@H]3CC[C@@H](N)CC3)c2)cc1 [Compound 393, N-((1r,4r)-4-aminocyclohexyl)-3-chloro-4,7-difluoro-N-((4-methoxy-4′-vinylbiphenyl-3-yl)methyl)benzo[b]thiophene-2-carboxamide] |  |  | 0.05 to 0.25
12 |  | < 0.05 | CN[C@H]1CC[C@@H](N(Cc2cc(OC)cc(-c3ccncc3)c2)C(=O)c2sc3c(F)ccc(F)c3c2Cl)CC1 [Compound 394, 3-Chloro-4,7-difluoro-benzo[b]thiophene-2-carboxylic acid (3-methoxy-5-pyridin-4-yl-benzyl)-(4-methylamino-cyclohexyl)-amide bis(trifluoroacetate)] |  |  | < 0.05
13 |  | 0.05 to 0.25 | CCc1ccc(-c2ccncc2)cc1CN(C(=O)c1sc2c(F)ccc(F)c2c1Cl)[C@H]1CC[C@@H](NC)CC1 [Compound 395, 3-Chloro-4,7-difluoro-benzo[b]thiophene-2-carboxylic acid (2-ethyl-5-pyridin-4-yl-benzyl)-(4-methylamino-cyclohexyl)-amide dihydrochloride] |  |  | 0.05 to 0.25
14 | 0.25 to 1 |  | CN[C@H]1CC[C@H](N(Cc2cc(-c3ccccc3SC)ccc2OC)C(=O)c2sc3c(F)ccc(F)c3c2Cl)CC1 [Compound 408, 3-Chloro-4,7-difluoro-benzo[b]thiophene-2-carboxylic acid (4-methoxy-2′-methylsulfanyl-biphenyl-3-ylmethyl)-(4-methylamino-cyclohexyl)-amide hydrochloride] | 0.25 to 1 |  | 
15 | 1 to 2.5 |  | CN[C@H]1CC[C@H](N(Cc2cc(-c3ccccc3[S+](C)[O-])ccc2OC)C(=O)c2sc3c(F)ccc(F)c3c2Cl)CC1 (stereo partly shown) [Compound 409, 3-Chloro-4,7-difluoro-benzo[b]thiophene-2-carboxylic acid (2′-methanesulfinyl-4-methoxy-biphenyl-3-ylmethyl)-(4-methylamino-cyclohexyl)-amide trifluoroacetate] | 0.25 to 1 |  | 
16 | < 0.05 |  | COc1ccc(-c2cccnc2)cc1CN(C(=O)c1sc2cccc(F)c2c1Cl)[C@H]1CC[C@@H](N)CC1 [Compound 410, 3-Chloro-4-fluoro-benzo[b]thiophene-2-carboxylic acid (4-amino-cyclohexyl)-(2-methoxy-5-pyridin-3-yl-benzyl)-amide] | < 0.05 |  | 
17 | 1 to 2.5 |  | CN[C@H]1CC[C@H](N(Cc2cc(-c3ccccc3S(C)(=O)=O)ccc2OC)C(=O)c2sc3c(F)ccc(F)c3c2Cl)CC1 [Compound 411, 3-Chloro-4,7-difluoro-benzo[b]thiophene-2-carboxylic acid (2′-methanesulfonyl-4-methoxy-biphenyl-3-ylmethyl)-(4-methylamino-cyclohexyl)-amide hydrochloride] | 0.25 to 1 |  | 
18 | < 0.05 |  | CN[C@H]1CC[C@H](N(Cc2cc(-c3cccc(S(C)(=O)=O)c3)ccc2OC)C(=O)c2sc3c(F)ccc(F)c3c2Cl)CC1 [Compound 412, 3-Chloro-4,7-difluoro-benzo[b]thiophene-2-carboxylic acid (3′-methanesulfonyl-4-methoxy-biphenyl-3-ylmethyl)-(4-methylamino-cyclohexyl)-amide hydrochloride] | < 0.05 |  | 
19 | < 0.05 |  | CN[C@H]1CC[C@H](N(Cc2cc(-c3cccnc3OC)ccc2OC)C(=O)c2sc3cccc(F)c3c2Cl)CC1 [Compound 413] | 0.05 to 0.25 |  | 
20 | < 0.05 |  | CCOc1cc(-c2ccc(OC)c(CN(C(=O)c3sc4c(F)ccc(F)c4c3Cl)[C@H]3CC[C@H](NC)CC3)c2)ccn1 [Compound 414] | 0.05 to 0.25 |  | 
21 | 0.05 to 0.25 |  | CCOc1cc(-c2ccc(OC)c(CN(C(=O)c3sc4cccc(F)c4c3Cl)[C@H]3CC[C@H](NC)CC3)c2)ccn1 [Compound 415] | 0.05 to 0.25 |  | 
22 | 0.05 to 0.25 |  | COc1ccc(-c2cncc(F)c2)cc1CN(C(=O)c1sc2c(F)ccc(F)c2c1Cl)[C@H]1CC[C@@H](N)CC1 [Compound 416] | < 0.05 |  | 
23 | < 0.05 |  | COc1ccc(-c2ccncc2F)cc1CN(C(=O)c1sc2c(F)ccc(F)c2c1Cl)[C@H]1CC[C@@H](N)CC1 [Compound 417] | < 0.05 |  | 
24 | < 0.05 |  | COc1ccc(-c2cc[n+](C)cc2)cc1CN(C(=O)c1sc2c(F)ccc(F)c2c1Cl)[C@H]1CC[C@@H](N)CC1 [Compound 418] | 1 to 2.5 |  | 
